Experimental data: publication PMC8231556, “Inhibiting Endothelial Cell Function in Normal and Tumor Angiogenesis Using BMP Type I Receptor Macrocyclic Kinase Inhibitors” (Cancers, 2021)

What was measured:
Assay in all cases: radiometric kinase profiling (33 PanQinase)
Format in all cases: biochemical
AURKB = target: T1, AURKB (Homo sapiens, UniProt Q96GD4); conditions: read-out: Inhibitory effect (%) AURKB
T1 construct: purchased Proqinase, Germany
Procedure, shortened: (§1)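 Enzyme/substrate mixes were incubated with [γ-33P]-ATP and compound (added as a 0.1 μM solution in 10% DMSO) at 30 °C for 60 min, then stopped with H3PO4 and washed with NaCl. 33P incorporation was scintillation-counted, and residual activity (%) was normalized to untreated control and background.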

CDK4_cyclinD1 = target: T2, CDK4_cyclinD1 (Homo sapiens, UniProt P11802); conditions: read-out: Inhibitory effect (%) CDK4_cyclinD1
T2 construct: purchased Proqinase, Germany
Procedure, shortened: as §1

BTK = target: T3, BTK (Homo sapiens, UniProt Q06187); conditions: read-out: Inhibitory effect (%) BTK
T3 construct: purchased Proqinase, Germany
Procedure, shortened: as §1

HIPK1 = target: T4, HIPK1 (Homo sapiens, UniProt Q86Z02); conditions: read-out: Inhibitory effect (%) HIPK1
T4 construct: purchased ProQinase (33PanQinase Activity Assay)
Procedure, shortened: as §1

MAP3K7 = target: T5, MAP3K7 (Homo sapiens, UniProt O43318); conditions: read-out: Inhibitory effect (%) MAP3K7
T5 construct: purchased ProQinase (33PanQinase Activity Assay)
T5 sequence (O43318 1-303 limits assumed): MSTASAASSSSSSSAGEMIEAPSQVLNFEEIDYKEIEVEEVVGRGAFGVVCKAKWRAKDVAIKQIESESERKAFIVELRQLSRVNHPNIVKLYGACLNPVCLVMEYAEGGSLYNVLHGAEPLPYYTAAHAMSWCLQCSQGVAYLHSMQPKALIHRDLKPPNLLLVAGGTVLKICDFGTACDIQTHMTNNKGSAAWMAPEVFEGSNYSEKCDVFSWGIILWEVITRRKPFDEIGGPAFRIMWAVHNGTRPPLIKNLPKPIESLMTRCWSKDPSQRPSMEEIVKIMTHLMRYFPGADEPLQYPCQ
Procedure, shortened: as §1

LRRK2 = target: T6, LRRK2 (Homo sapiens, UniProt Q5S007); conditions: read-out: Inhibitory effect (%) LRRK2
T6 construct: purchased ProQinase (33PanQinase Activity Assay)
T6 sequence (Q5S007 whole entry): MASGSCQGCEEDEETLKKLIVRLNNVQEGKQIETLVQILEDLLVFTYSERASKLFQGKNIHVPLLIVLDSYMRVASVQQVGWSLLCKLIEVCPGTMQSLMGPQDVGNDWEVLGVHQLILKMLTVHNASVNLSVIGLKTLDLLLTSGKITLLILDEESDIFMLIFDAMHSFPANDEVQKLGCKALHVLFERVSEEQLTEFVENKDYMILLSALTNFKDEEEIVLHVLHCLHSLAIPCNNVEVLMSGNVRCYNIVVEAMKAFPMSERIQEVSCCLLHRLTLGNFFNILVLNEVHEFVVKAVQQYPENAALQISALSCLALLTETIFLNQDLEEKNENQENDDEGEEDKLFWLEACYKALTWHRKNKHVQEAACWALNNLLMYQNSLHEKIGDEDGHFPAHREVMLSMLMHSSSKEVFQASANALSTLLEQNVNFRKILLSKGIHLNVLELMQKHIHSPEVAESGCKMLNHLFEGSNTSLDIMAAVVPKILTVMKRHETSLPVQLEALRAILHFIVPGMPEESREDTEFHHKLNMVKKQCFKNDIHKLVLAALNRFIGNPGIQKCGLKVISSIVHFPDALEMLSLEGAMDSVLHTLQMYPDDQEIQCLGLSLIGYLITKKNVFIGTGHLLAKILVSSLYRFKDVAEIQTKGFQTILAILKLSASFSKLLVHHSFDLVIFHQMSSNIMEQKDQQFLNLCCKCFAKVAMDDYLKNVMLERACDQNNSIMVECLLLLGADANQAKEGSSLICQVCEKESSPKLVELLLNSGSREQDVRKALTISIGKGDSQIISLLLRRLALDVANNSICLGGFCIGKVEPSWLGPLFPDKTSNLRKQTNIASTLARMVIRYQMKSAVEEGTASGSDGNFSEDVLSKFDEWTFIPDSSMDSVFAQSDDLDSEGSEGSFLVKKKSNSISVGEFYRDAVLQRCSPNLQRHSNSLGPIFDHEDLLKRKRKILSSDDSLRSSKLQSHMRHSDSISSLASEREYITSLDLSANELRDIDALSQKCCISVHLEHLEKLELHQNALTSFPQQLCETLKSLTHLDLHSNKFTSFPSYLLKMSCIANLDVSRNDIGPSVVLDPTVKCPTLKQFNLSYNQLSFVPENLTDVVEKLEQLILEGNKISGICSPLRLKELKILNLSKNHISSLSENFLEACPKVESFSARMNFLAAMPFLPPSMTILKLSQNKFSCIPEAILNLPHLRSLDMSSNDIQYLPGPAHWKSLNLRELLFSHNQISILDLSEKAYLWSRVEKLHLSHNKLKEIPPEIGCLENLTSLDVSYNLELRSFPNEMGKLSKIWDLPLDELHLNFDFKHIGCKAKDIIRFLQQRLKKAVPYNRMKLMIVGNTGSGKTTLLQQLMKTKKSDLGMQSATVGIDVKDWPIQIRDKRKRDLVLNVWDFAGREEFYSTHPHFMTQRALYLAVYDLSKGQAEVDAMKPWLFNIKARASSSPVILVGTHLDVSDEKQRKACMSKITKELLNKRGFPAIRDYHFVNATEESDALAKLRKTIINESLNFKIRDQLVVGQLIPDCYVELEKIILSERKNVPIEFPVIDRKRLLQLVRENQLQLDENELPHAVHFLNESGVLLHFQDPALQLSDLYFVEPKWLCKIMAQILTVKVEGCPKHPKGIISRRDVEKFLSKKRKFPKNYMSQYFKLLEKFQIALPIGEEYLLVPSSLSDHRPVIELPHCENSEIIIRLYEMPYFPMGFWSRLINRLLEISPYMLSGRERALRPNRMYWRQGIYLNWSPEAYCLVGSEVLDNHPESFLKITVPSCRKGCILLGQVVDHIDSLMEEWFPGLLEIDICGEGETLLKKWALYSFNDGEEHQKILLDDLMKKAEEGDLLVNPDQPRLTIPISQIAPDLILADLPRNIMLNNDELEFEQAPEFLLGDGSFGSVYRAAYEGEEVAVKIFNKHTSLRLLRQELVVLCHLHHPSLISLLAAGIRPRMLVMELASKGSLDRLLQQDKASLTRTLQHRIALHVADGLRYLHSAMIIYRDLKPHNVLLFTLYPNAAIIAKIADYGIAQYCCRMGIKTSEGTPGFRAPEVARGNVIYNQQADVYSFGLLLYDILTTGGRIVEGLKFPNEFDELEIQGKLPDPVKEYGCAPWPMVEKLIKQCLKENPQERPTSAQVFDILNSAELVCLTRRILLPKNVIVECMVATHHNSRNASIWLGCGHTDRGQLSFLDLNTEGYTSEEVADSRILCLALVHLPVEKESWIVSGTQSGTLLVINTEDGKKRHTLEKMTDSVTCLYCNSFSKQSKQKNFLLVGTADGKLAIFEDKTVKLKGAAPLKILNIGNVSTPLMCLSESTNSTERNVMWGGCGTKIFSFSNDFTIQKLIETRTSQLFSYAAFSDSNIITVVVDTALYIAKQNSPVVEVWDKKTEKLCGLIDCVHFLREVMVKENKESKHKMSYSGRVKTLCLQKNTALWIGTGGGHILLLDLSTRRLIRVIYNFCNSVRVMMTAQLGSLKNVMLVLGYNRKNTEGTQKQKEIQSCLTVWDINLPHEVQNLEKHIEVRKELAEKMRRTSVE
Procedure, shortened: as §1

PLK1 = target: T7, PLK1 (Homo sapiens, UniProt P53350); conditions: read-out: Inhibitory effect (%) PLK1
T7 construct: purchased ProQinase (33PanQinase Activity Assay)
Procedure, shortened: as §1

ABL1 = target: T8, ABL1 (Homo sapiens, UniProt P00519); conditions: read-out: Inhibitory effect (%) ABL1
T8 construct: purchased Proqinase, Germany
Procedure, shortened: as §1

DAPK1 = target: T9, DAPK1 (Homo sapiens, UniProt P53355); conditions: read-out: Inhibitory effect (%) DAPK1
T9 construct: purchased Proqinase, Germany
T9 sequence (P53355 whole entry): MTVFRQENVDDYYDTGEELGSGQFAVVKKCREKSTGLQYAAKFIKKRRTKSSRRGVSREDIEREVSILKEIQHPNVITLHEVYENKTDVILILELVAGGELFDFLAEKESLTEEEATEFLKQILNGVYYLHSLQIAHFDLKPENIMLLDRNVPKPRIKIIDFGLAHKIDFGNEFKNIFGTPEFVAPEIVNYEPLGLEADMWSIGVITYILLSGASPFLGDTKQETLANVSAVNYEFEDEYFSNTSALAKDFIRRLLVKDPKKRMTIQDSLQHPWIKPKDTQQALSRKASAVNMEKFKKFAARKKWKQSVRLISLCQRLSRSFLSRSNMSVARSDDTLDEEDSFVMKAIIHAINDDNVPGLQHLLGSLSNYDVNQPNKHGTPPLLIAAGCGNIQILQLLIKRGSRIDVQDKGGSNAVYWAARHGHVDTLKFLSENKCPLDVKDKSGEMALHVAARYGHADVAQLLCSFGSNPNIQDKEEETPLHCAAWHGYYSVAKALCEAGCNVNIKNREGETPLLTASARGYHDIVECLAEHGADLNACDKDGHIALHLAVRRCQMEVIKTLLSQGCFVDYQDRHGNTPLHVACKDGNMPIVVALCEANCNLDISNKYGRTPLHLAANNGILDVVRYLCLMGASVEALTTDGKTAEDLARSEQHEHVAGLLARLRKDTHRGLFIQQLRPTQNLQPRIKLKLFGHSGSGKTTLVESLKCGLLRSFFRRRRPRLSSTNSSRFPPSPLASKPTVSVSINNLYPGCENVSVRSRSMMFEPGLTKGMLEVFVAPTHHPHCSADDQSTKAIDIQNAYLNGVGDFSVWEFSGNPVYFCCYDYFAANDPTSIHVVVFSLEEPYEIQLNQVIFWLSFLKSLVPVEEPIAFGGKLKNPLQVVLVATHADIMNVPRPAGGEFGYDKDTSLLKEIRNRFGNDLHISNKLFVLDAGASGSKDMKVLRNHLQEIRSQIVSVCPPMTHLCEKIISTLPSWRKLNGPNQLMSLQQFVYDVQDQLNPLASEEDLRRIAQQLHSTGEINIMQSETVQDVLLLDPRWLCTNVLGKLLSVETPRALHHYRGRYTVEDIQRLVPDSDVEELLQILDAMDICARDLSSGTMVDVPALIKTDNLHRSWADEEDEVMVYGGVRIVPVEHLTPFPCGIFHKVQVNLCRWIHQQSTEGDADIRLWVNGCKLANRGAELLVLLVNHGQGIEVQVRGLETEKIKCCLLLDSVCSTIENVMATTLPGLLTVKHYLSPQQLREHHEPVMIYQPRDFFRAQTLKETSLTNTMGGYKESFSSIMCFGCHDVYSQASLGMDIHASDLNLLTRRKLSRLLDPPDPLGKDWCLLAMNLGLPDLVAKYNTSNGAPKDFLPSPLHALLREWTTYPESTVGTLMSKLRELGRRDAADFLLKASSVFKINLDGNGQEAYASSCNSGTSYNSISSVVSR
Procedure, shortened: as §1

SRPK1 = target: T10, SRPK1 (Homo sapiens, UniProt Q96SB4); conditions: read-out: Inhibitory effect (%) SRPK1
T10 construct: purchased ProQinase (33PanQinase Activity Assay)
T10 sequence (Q96SB4 whole entry): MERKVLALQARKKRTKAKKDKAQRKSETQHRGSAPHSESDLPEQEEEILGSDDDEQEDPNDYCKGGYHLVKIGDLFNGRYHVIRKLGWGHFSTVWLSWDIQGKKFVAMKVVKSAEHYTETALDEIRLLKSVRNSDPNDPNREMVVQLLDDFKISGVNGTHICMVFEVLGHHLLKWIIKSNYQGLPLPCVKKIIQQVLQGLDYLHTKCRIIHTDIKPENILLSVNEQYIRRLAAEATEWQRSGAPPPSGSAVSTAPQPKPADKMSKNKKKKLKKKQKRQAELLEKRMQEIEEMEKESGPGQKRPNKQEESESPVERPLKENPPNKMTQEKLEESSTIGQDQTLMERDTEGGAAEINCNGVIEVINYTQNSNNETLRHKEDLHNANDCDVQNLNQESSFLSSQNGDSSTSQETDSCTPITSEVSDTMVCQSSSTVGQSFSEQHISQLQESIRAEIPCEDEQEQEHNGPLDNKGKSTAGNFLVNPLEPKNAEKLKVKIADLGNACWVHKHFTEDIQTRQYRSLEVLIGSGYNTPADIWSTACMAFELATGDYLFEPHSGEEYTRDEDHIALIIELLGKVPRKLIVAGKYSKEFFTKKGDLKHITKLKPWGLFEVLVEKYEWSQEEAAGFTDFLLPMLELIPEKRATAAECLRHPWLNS
Procedure, shortened: as §1

MAP3K5 = target: T11, MAP3K5 (Homo sapiens, UniProt Q99683); conditions: read-out: Inhibitory effect (%) MAP3K5
T11 construct: purchased ProQinase (33PanQinase Activity Assay)
T11 sequence (Q99683 1-1374): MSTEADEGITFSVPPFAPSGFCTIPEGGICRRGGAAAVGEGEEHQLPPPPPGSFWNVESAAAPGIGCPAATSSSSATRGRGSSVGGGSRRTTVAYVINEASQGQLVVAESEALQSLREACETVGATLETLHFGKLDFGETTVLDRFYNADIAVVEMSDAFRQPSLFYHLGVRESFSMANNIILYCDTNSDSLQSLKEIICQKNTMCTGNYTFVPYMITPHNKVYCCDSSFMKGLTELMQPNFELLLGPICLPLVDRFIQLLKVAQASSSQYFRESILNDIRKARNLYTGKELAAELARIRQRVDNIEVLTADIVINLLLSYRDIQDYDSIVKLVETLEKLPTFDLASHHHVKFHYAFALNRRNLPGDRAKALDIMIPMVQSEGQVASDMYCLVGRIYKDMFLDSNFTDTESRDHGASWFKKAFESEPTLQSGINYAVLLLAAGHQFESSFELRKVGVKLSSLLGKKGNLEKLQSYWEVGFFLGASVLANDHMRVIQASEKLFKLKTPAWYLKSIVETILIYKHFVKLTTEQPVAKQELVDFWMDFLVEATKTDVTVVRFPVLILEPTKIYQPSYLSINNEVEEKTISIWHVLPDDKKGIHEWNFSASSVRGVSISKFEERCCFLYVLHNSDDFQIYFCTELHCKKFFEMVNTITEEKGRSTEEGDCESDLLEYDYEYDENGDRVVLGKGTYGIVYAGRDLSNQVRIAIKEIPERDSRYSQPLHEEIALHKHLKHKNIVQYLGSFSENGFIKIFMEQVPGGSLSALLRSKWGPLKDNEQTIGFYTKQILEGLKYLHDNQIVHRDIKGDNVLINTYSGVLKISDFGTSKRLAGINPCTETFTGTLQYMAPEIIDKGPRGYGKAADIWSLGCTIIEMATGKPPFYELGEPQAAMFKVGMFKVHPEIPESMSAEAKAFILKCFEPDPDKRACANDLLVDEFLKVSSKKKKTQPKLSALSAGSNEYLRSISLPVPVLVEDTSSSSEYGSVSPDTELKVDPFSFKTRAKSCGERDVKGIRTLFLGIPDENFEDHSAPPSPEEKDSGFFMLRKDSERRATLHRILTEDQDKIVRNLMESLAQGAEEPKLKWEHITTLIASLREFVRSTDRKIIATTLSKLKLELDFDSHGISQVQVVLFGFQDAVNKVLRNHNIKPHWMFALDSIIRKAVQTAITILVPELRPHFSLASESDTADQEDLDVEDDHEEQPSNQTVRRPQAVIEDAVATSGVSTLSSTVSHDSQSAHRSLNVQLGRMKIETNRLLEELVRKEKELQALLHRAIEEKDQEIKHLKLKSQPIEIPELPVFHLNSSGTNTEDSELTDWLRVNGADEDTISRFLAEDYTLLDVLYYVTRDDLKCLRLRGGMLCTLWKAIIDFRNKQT
Procedure, shortened: as §1

KDR = target: T12, KDR (Homo sapiens, UniProt P35968); conditions: read-out: Inhibitory effect (%) KDR
T12 construct: purchased ProQinase (33PanQinase Activity Assay)
Procedure, shortened: as §1

T1 sequence (Q96GD4 whole entry): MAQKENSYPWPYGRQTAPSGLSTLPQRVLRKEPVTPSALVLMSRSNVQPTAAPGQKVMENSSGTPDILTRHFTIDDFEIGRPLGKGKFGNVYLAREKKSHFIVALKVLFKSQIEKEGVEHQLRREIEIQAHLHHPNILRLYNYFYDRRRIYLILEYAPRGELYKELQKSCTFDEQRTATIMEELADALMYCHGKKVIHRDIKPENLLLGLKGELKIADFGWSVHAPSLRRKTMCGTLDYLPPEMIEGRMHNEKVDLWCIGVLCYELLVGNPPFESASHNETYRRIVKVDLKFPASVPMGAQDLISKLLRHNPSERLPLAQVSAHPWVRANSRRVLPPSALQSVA

| Compound | inhibition at 0.1 µM (AURKB) | inhibition at 0.1 µM (CDK4_cyclinD1) | inhibition at 0.1 µM (BTK) | inhibition at 0.1 µM (HIPK1) | inhibition at 0.1 µM (MAP3K7) | inhibition at 0.1 µM (LRRK2) | inhibition at 0.1 µM (PLK1) | inhibition at 0.1 µM (ABL1) | inhibition at 0.1 µM (DAPK1) | inhibition at 0.1 µM (SRPK1) | inhibition at 0.1 µM (MAP3K5) | inhibition at 0.1 µM (KDR) |
| --- | --- | --- | --- | --- | --- | --- | --- | --- | --- | --- | --- | --- |
| CN1CCC(=O)NCCNc2ccn3ncc(c3n2)-c2cccc(c2)C1 [OD29] | -11.2% | -13.8% | 7.22% | 6.23% | 11.4% | 13.8% | -21.2% | 18.7% | -3.89% | 21.5% | 0.68% | 37.6% |
| CN1CCc2cccc(c2)Nc2nccc(n2)N2CCCc3cc(ccc32)C1 [OD16] | 4.48% | 20.3% | -12% | -7.23% | -6.98% | 18.4% | -5.35% | -20.1% | -6.59% | -24.9% | -11.3% | 0.8% |
| c1ccc2c(-c3cnn4cc(-c5ccc(N6CCNCC6)cc5)cnc34)ccnc2c1 [LDN-193189, reference compound] | 3.93% | -10.1% | -12.4% | -13.4% | 7.07% | 5.16% | -21.7% | 12.5% | 11.3% | -16.5% | 6.9% | -6.35% |
